Drawing on patent US9315503B2, “Kinase inhibitors” (CHIESI FARMACEUTICI S.p.A., priority 2011, dated 2016), this text covers IC50 for 19 molecules.

Usually IC50 stands for the concentration needed to halve the response being measured.

Assay [1] addresses T1, p38alpha (Homo sapiens, UniProt Q16539).
T1 construct: purchased Invitrogen PV3304
Kind of assay: P38Alpha enzyme inhibition assay (Alphascreen kinase activity assay). As to conditions: 100 pM p38alpha, 250 μM ATP, 2 hours pre-incubation at 25° C., read-out: p38α inhibition (IC50 values). The format is biochemical. The method in brief: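 AlphaScreen read-out: after an EDTA stop, an anti-phospho-ATF2 antibody with Protein A acceptor and donor beads measured substrate phosphorylation. Compounds sat 2 h at 25°C with 100 pM p38α and 0.3 µg/ml ATF-2 fusion protein (pH 7.5, 1% DMSO) before 250 µM ATP was added for 1 h. IC50 from dose-response.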
For orientation: In Alpha technology, singlet oxygen from a donor bead excites a nearby acceptor bead.

In assay [2] the test system is LPS-stimulated TNFα release from PBMCs. Nature of the assay: LPS-stimulated PBMC TNFα release assay. The format is cell-based. As to conditions: inhibition of TNFα release, human PBMCs, LPS 10 ng/ml, 18 h, ELISA, read-out: p38α inhibition (IC50 values). As to the method: LPS-Stimulated PBMC TNFα Release Assay.
Peripheral Blood Mononuclear Cells (PBMCs) were isolated from healthy human volunteer blood using a standard density gradient centrifugation technique. Citrated blood was placed onto Histopaque™ and centrifuged. The PBMCs were removed from the density gradient interface and washed in phosphate buffered saline (PBS). The PBMCs were suspended in RPMI 1640 medium (without serum), dispensed into a 96-well plate and incubated at 37° C. for 3 h in a humidified incubator. After incubation, the medium was replaced (with medium containing 1% foetal bovine serum) and the plate incubated at 37° C., for 1 h, in the presence of test compound or the appropriate vehicle. LPS (10 ng/ml), or an appropriate vehicle control, was then added to the cells and the plate returned to the incubator for 18 h. Cell-free supernatants were removed and assayed for TNFα levels using an ELISA kit from R&D Systems.
A dose response curve to each test compound was performed and the effect of compound in each experiment was expressed as a percentage inhibition of the control TNFα release. Dose response curves were plotted and compound potency (IC50) was determined. Compounds were tested in at least three separate experiments.

Counter-ions that a name gives are not always drawn. A value given as a limit tells only on which side of the number the result lay.

T1 sequence (Q16539 whole entry): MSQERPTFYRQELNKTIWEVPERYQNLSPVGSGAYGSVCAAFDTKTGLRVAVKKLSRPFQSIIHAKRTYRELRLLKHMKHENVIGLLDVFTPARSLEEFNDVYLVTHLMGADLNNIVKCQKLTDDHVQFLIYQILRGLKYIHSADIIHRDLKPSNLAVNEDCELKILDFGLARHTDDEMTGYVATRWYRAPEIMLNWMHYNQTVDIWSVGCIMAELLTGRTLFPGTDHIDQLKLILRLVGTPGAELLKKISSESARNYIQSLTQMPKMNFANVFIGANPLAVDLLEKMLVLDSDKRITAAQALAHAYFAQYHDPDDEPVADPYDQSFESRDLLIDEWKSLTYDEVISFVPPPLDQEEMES

`Cc1ccc(-n2nc(C(C)(C)C)cc2NC(=O)N[C@H]2CC[C@@H](Oc3ccc4nnc(CCN5CCN(C)CC5)n4c3)c3ccccc32)cc1` [Example 2, 1-(5-tert-Butyl-2-p-tolyl-2H-pyrazol-3-yl)-3-((1S,4R)-4-{3-[2-(4-methyl-piperazin-1-yl)-ethyl]-[1,2,4]triazolo[4,3-a]pyridin-6-yloxy}-1,2,3,4-tetrahydro-naphthalen-1-yl)-urea formate salt]: the IC50 was below 10 nM in assay [1] and 10 to 100 nM in assay [2].

As to `Cc1ccc(-n2nc(C(C)(C)C)cc2NC(=O)N[C@H]2CC[C@@H](Oc3ccc4nnc(N5CCCCC5)n4c3)c3ccccc32)cc1` [Example 3], the 50% inhibitory concentration (IC50) in assay [1] and in assay [2] was below 10 nM throughout.

Consider `Cc1ccc(-n2nc(C(C)(C)C)cc2NC(=O)N[C@H]2CC[C@@H](Oc3ccc4nnc(CN5CCNCC5)n4c3)c3ccccc32)cc1` [Example 7, 1-(5-tert-Butyl-2-p-tolyl-2H-pyrazol-3-yl)-3-[(1S,4R)-4-(3-piperazin-1-ylmethyl-[1,2,4]triazolo[4,3-a]pyridin-6-yloxy)-1,2,3,4-tetrahydro-naphthalen-1-yl]-urea], for which the IC50 in assay [1] was below 10 nM; in assay [2] it was 100 to 1000 nM.

Take `Cc1ccc(-n2nc(C(C)(C)C)cc2NC(=O)N[C@H]2CC[C@@H](Oc3ccc4nnc(NC(C)C)n4c3)c3ccccc32)cc1` [Example 8, 1-(5-tert-Butyl-2-p-tolyl-2H-pyrazol-3-yl)-3-[(1S,4R)-4-(3-isopropylamino-[1,2,4]triazolo[4,3-a]pyridin-6-yloxy)-1,2,3,4-tetrahydro-naphthalen-1-yl]-urea]: the IC50 in assay [1] and in assay [2] was below 10 nM throughout.

Consider `Cc1ccc(-n2nc(C(C)(C)C)cc2NC(=O)N[C@H]2CC[C@@H](Oc3ccc(C#N)nc3)c3ccccc32)cc1` [Example 9, 1-(5-tert-Butyl-2-p-tolyl-2H-pyrazol-3-yl)-3-[(1S,4R)-4-(6-cyano-pyridin-3-yloxy)-1,2,3,4-tetrahydro-naphthalen-1-yl]-urea], for which the IC50 is below 10 nM in assay [1] and 100 to 1000 nM in assay [2].

Take `COCC(=O)Nc1cc(O[C@H]2CC[C@H](NC(=O)Nc3cc(C(C)(C)C)nn3-c3ccc(C)cc3)c3ccccc32)ccn1` [Example 10, N-(4-{(1S,4S)-4-[3-(5-tert-Butyl-2-p-tolyl-2H-pyrazol-3-yl)-ureido]-1,2,3,4-tetrahydro-naphthalen-1-yloxy}-pyridin-2-yl)-2-methoxy-acetamide]: the IC50 in assay [1] and in assay [2] was below 10 nM in each case.

`Cc1ccc(-n2nc(C(C)(C)C)cc2NC(=O)N[C@H]2CC[C@@H](Oc3ccc4cnn(CCO)c4c3)c3ccccc32)cc1` [Example 11, 1-(5-tert-Butyl-2-p-tolyl-2H-pyrazol-3-yl)-3-{(1S,4R)-4-[1-(2-hydroxy-ethyl)-1H-indazol-6-yloxy]-1,2,3,4-tetrahydro-naphthalen-1-yl}-urea]: the values for the IC50 in assay [1] and in assay [2] were below 10 nM and 10 to 100 nM, respectively.

For the molecule `Cc1ccc(-n2nc(C(C)(C)C)cc2NC(=O)N[C@H]2CC[C@@H](Oc3ccc4nnc([C@H]5CCCN5)n4c3)c3ccccc32)cc1` [Example 12, 1-(5-tert-Butyl-2-p-tolyl-2H-pyrazol-3-yl)-3-[(1S,4R)-4-((R)-3-pyrrolidin-2-yl-[1,2,4]triazolo[4,3-a]pyridin-6-yloxy)-1,2,3,4-tetrahydro-naphthalen-1-yl]-urea], the IC50 in assay [1] and in assay [2] was below 10 nM in each case.

As for `COCC(=O)Nc1cc(O[C@@H]2CC[C@H](NC(=O)Nc3cc(C(C)(C)C)nn3-c3ccc(C)cc3)c3ccccc32)ccn1` [Example 13, N-(4-{(1R,4S)-4-[3-(5-tert-Butyl-2-p-tolyl-2H-pyrazol-3-yl)-ureido]-1,2,3,4-tetrahydro-naphthalen-1-yloxy}-pyridin-2-yl)-2-methoxy-acetamide], the IC50 in assay [1] and in assay [2] was below 10 nM in each case.

`Cc1ccc(-n2nc(C(C)(C)C)cc2NC(=O)N[C@H]2CC[C@@H](Oc3ccc4nnc(-c5ccc(CN6CCOCC6)cc5)n4c3)c3ccccc32)cc1` [Example 18, 1-(5-tert-Butyl-2-p-tolyl-2H-pyrazol-3-yl)-3-{(1S,4R)-4-[3-(4-morpholin-4-ylmethyl-phenyl)-[1,2,4]triazolo[4,3-a]pyridin-6-yloxy]-1,2,3,4-tetrahydro-naphthalen-1-yl]-urea]: the IC50 in assay [1] and in assay [2] was below 10 nM in each case.

As to `Cc1ccc(-n2nc(C(C)(C)C)cc2NC(=O)N[C@H]2CC[C@@H](Oc3ccc4nnc(-c5cccc(CN6CCOCC6)c5)n4c3)c3ccccc32)cc1` [Example 19, 1-(5-tert-Butyl-2-p-tolyl-2H-pyrazol-3-yl)-3-{(1S,4R)-4-[3-(3-morpholin-4-ylmethyl-phenyl)-[1,2,4]triazolo[4,3-a]pyridin-6-yloxy]-1,2,3,4-tetrahydro-naphthalen-1-yl}-urea], the IC50 in assay [1] and in assay [2] was below 10 nM each time.

On to `Cc1ccc(-n2nc(C(C)(C)C)cc2NC(=O)N[C@H]2CC[C@@H](Oc3ccc4nnc(-c5ccccc5CN5CCOCC5)n4c3)c3ccccc32)cc1` [Example 20, 1-(5-tert-Butyl-2-p-tolyl-2H-pyrazol-3-yl)-3-{(1S,4R)-4-[3-(2-morpholin-4-ylmethyl-phenyl)-[1,2,4]triazolo[4,3-a]pyridin-6-yloxy]-1,2,3,4-tetrahydro-naphthalen-1-yl}-urea], for which the IC50 in assay [1] and in assay [2] was below 10 nM throughout.

For `Cc1ccc(-n2nc(C(C)(C)C)cc2NC(=O)N[C@H]2CC[C@@H](Oc3ccc(CN4CCOCC4)nc3)c3ccccc32)cc1` [Example 21, 1-(5-tert-Butyl-2-p-tolyl-2H-pyrazol-3-yl)-3-[(1S,4R)-4-(6-morpholin-4-ylmethyl-pyridin-3-yloxy)-1,2,3,4-tetrahydro-naphthalen-1-yl]-urea], the IC50 in assay [1] and in assay [2] was 10 to 100 nM each time.

As for `Cc1ccc(-n2nc(C(C)(C)C)cc2NC(=O)N[C@H]2CC[C@@H](Oc3ccc4nnc(CC5CCN(C)CC5)n4c3)c3ccccc32)cc1` [Example 22, 1-(5-tert-Butyl-2-p-tolyl-2H-pyrazol-3-yl)-3-{(1S,4R)-4-[3-(1-methyl-piperidin-4-ylmethyl)-[1,2,4]triazolo[4,3-a]pyridin-6-yloxy]-1,2,3,4-tetrahydro-naphthalen-1-yl}-urea], the IC50 in assay [1] is below 10 nM; in assay [2] it was 100 to 1000 nM.

In the case of `Cc1ccc(-n2nc(C(C)(C)C)cc2NC(=O)N[C@H]2CC[C@@H](Oc3ccc4nnc(CC5CCN(CC(F)F)CC5)n4c3)c3ccccc32)cc1` [Example 23, 1-(5-tert-Butyl-2-p-tolyl-2H-pyrazol-3-yl)-3-((1S,4R)-4-{3-[1-(2,2-difluoro-ethyl)-piperidin-4-ylmethyl]-[1,2,4]triazolo[4,3-a]pyridin-6-yloxy}-1,2,3,4-tetrahydro-naphthalen-1-yl)-urea], the half-inhibitory concentration (IC50) in assay [1] and in assay [2] was below 10 nM each time.

For `Cc1ccc(-n2nc(C(C)(C)C)cc2NC(=O)N[C@H]2CC[C@@H](Oc3ccc4nnc(N5CCC(O)CC5)n4c3)c3ccccc32)cc1` [Example 24, 1-(5-tert-Butyl-2-p-tolyl-2H-pyrazol-3-yl)-3-[(1S,4R)-4-[3-(4-hydroxypiperidin-1-yl)-[1,2,4]triazolo[4,3-a]pyridine-6-yloxy]-1,2,3,4-tetrahydro-naphthalen-1-yl]-urea], the IC50 in assay [1] and in assay [2] was below 10 nM each time.

Regarding `Cc1ccc(-n2nc(C(C)(C)C)cc2NC(=O)N[C@H]2CC[C@@H](Oc3ccc4nnc(N(C)CCO)n4c3)c3ccccc32)cc1` [Example 25, 1-(5-tert-Butyl-2-p-tolyl-2H-pyrazol-3-yl)-3-[(1S,4R)-4-{3-[(2-hydroxy-ethyl)-methyl-amino]-[1,2,4]triazolo[4,3-a]pyridine-6-yloxy]-1,2,3,4-tetrahydro-naphthalen-1-yl]-urea], the IC50 in assay [1] and in assay [2] was below 10 nM each time.

As to `Cc1ccc(-n2nc(C(C)(C)C)cc2NC(=O)N[C@H]2CC[C@@H](Oc3ccc4nnc(N5CC[C@H](O)C5)n4c3)c3ccccc32)cc1` [Example 26, 1-(5-tert-Butyl-2-p-tolyl-2H-pyrazol-3-yl)-3-{(1S,4R)-4-[3-((S)-3-hydroxy-pyrrolidin-1-yl)-[1,2,4]triazolo[4,3-a]pyridin-6-yloxy]-1,2,3,4-tetrahydro-naphthalen-1-yl}-urea], the IC50 in assay [1] and in assay [2] was below 10 nM throughout.

In the case of `Cc1ccc(-n2nc(C(C)(C)C)cc2NC(=O)N[C@H]2CC[C@@H](Oc3ccc4nnc(N5CCC[C@@H]5CO)n4c3)c3ccccc32)cc1` [Example 27, 1-(5-tert-Butyl-2-p-tolyl-2H-pyrazol-3-yl)-3-{(1S,4R)-4-[3-((R)-2-hydroxymethyl-pyrrolidin-1-yl)-[1,2,4]triazolo[4,3-a]pyridin-6-yloxy]-1,2,3,4-tetrahydro-naphthalen-1-yl}-urea], the IC50 in assay [1] and in assay [2] was below 10 nM each time.
